Data reported in patent publication US9976141B2, “Compositions and methods for inhibiting gene expression of Hif2alpha” (Arrowhead Madison Inc., priority 2015, dated 2018).

test system: human (tumor) Hif2α (EPAS1) mRNA; experiment: Hif2α knockdown in orthotopic RCC tumor bearing mice, single injection of RNAi trigger-delivery polymer conjugate, RT-qPCR (Table 7); format: in vivo; details: RNAi trigger 80 μg, polymer 126 400 μg; single tail vein injection; relative to isotonic glucose
In short: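 Female athymic nude mice carried orthotopic A498-SEAP ccRCC kidney tumours, used 5–6 weeks after implantation. They received one tail-vein injection of RGD-targeted Hif2α RNAi trigger–polymer conjugate or isotonic glucose. Tumour Hif2α mRNA was measured by TaqMan RT-qPCR normalised to CycA (ΔΔCT) and expressed relative to glucose-treated mice.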

| Substance | Relative Expression day 4 (Hif2α mRNA in kidney tumor) |
| --- | --- |
| AD01295 (antisense TUUCAUGAAAUCGUUACGUUGGCUAU; sense UAUAUCAACGUAACGAUUUCAUGAAA; Hif2alpha RNAi agent antisense strand; modified_base 25 modified base = “2′-hydroxy corresponding nucleoside”; modified_base 2,4,6,8,10,14,16,18,20 /mod_base = “2′-deoxy-2′-fluoro corresponding nucleoside”; modified_base 3,5,7,9,11,12,13,15,17,19,21,22,23,24,26 /mod_base = “2′-O-methyl corresponding nucleoside”; modified_base 2,3,23,24 /mod_base = “5′-phosphorothioate corresponding nucleotide”; Hif2alpha RNAi agent sense strand; modified_base 2,4 modified base = “2′-hydroxy corresponding nucleoside”; modified_base 6,8,10,12,14,15,16,18,20,22,24,26 /mod_base = “2′-deoxy-2′-fluoro correspondin) | 0.22 |
| AD01258 (antisense TUUCAUGAAAUCGUUACGUTT; sense ACGUAACGAUUUCAUGAAAT; Hif2alpha RNAi agent antisense strand; modified_base 2,4,6,8,10,12,14,16,18 /mod_base = “2′-deoxy-2′-fluoro corresponding nucleoside”; modified_base 3,5,7,9,11,13,17,19 /mod_base = “2′-O-methyl corresponding nucleoside”; modified_base 15 /mod_base = “2′-3′ seco corresponding nucleotide”; modified_base 21 /mod_base = “5′-phosphorothioate corresponding nucleotide”; Hif2alpha RNAi agent sense strand; modified_base 1,3,5,7,9,11,13,15,17,19 /mod_base = “2′-deoxy-2′-fluoro corresponding nucleoside”; modified_base 2,4,6,8,10,12,14,16,18 /mod_base = “2′-O-methyl corresponding nucleoside”; modified_b) | 0.38 |
| AD01025 (antisense TCUAGCAACAAAACCUUAATT; sense UUAAGGUUUUGUUGCUAGAT; Hif2alpha RNAi agent antisense strand; modified_base 2,4,6,8,10,12,14,16,18 /mod_base = “2′-deoxy-2′-fluoro corresponding nucleoside”; modified_base 3,5,7,9,11,13,15,17,19 /mod_base = “2′-O-methyl corresponding nucleoside”; modified_base 21 /mod_base = “5′-phosphorothioate corresponding nucleotide”; Hif2alpha RNAi agent sense strand; modified_base 1,3,5,7,9,11,13,15,17,19 /mod_base = “2′-deoxy-2′-fluoro corresponding nucleoside”; modified_base 2,4,6,8,10,12,14,16,18 /mod_base = “2′-O-methyl corresponding nucleoside”; modified_base 20 /mod_base = “3′-3′-linked nucleotide”; modified_base 1 /mo) | 0.34 |

same assay, conditions: RNAi trigger 115 μg, polymer 100A 375 μg; single tail vein injection; relative to isotonic glucose

| Substance | Relative Expression day 4 (Hif2α mRNA in kidney tumor) |
| --- | --- |
| AD01288 (antisense TUUCAUGAAAUCGUUACGUTT; sense ACGUAACGAUUUCAUGAAAT; Hif2alpha RNAi agent antisense strand; modified_base 2,4,6,8,10,14,16,18 /mod_base = “2′-deoxy-2′-fluoro corresponding nucleoside”; modified_base 3,5,7,9,11,12,13,15,17,19 /mod_base = “2′-O-methyl corresponding nucleoside”; modified_base 21 /mod_base = “5′-phosphorothioate corresponding nucleotide”; Hif2alpha RNAi agent sense strand; modified_base 1,3,5,7,8,9,11,13,15,17,19 /mod_base = “2′-deoxy-2′-fluoro corresponding nucleoside”; modified_base 2,4,6,10,12,14,16,18 /mod_base = “2′-O-methyl corresponding nucleoside”; modified_base 20 /mod_base = “3′-3′-linked nucleotide”; modified_base 1 /mo) | 0.32 |
| AD01554 (antisense TUUCAUGAAAUCGUUACGUTT; sense ACGUAACGAUUUCAUGAAAT; Hif2alpha RNAi agent antisense strand; modified_base 2,4,6,8,10,13,14,16,18 /mod_base = “2′-deoxy-2′-fluoro corresponding nucleoside”; modified_base 3,5,7,9,11,12,15,17,19 /mod_base = “2′-O-methyl corresponding nucleoside”; modified_base 2,3,21 /mod_base = “5′-phosphorothioate corresponding nucleotide”; Hif2alpha RNAi agent sense strand; modified_base 1,3,5,8,9,11,13,15,17,19 /mod_base = “2′-deoxy-2′-fluoro corresponding nucleoside”; modified_base 2,4,6,7,10,12,14,16,18 /mod_base = “2′-O-methyl corresponding nucleoside”; modified_base 20 /mod_base = “3′-3′-linked nucleotide”; modified_base 1) | 0.29 |
| AD01522 (antisense TUUCAUGAAAUCGUUACGUTT; sense ACGUAACGAUUUCAUGAAAT; Hif2alpha RNAi agent antisense strand; modified_base 2,4,6,8,10,14,16,18 /mod_base = “2′-deoxy-2′-fluoro corresponding nucleoside”; modified_base 3,5,7,9,11,12,13,15,17,19 /mod_base = “2′-O-methyl corresponding nucleoside”; modified_base 21 /mod_base = “5′-phosphorothioate corresponding nucleotide”; Hif2alpha RNAi agent sense strand; modified_base 1,3,5,7,8,9,11,13,15,17,19 /mod_base = “2′-deoxy-2′-fluoro corresponding nucleoside”; modified_base 2,4,6,10,12,14,16,18 /mod_base = “2′-O-methyl corresponding nucleoside”; modified_base 20 /mod_base = “3′-3′-linked nucleotide”; modified_base 1 /mo) | 0.44 |
